Source: ChEMBL document CHEMBL3217737, “Discovery of a highly selective FLT3 kinase inhibitor from phenotypic cell viability profiling” (Medchemcomm, 2013)
The source made the active and inactive calls. No cut-off for these calls is given here.

Key:
[1] = target: Serine/threonine-protein kinase A-Raf (Homo sapiens) (UniProt P10398); assay: Inhibition of ARAF (unknown origin) at 10 uM assessed as residual enzyme activity
[2] = target: Proto-oncogene tyrosine-protein kinase Src (Homo sapiens) (UniProt P12931); assay: Inhibition of c-Src (unknown origin) at 10 uM assessed as residual enzyme activity
[3] = target: Hepatocyte growth factor receptor (Homo sapiens) (UniProt P08581); assay: Inhibition of c-Met (unknown origin) at 10 uM assessed as residual enzyme activity
MCF7 = assay: Cytotoxicity against human MCF7 cells assessed as cell viability at 1 uM after 24 hrs by WST1 assay; assay type: functional; conditions: MCF7, 24 h, read-out: Activity
[4] = target: Focal adhesion kinase 1 (Homo sapiens) (UniProt Q05397); assay: Inhibition of FAK (unknown origin) at 10 uM assessed as residual enzyme activity
[5] = target: Platelet-derived growth factor receptor beta (Homo sapiens) (UniProt P09619); assay: Inhibition of PDGFRbeta (unknown origin) at 10 uM assessed as residual enzyme activity
[6] = target: Dual specificity mitogen-activated protein kinase kinase 1 (Homo sapiens) (UniProt Q02750); assay: Inhibition of MEK1 (unknown origin) at 10 uM assessed as residual enzyme activity
[7] = target: ALK tyrosine kinase receptor (Homo sapiens) (UniProt Q9UM73); assay: Inhibition of ALK (unknown origin) at 10 uM assessed as residual enzyme activity
[8] = target: Receptor-type tyrosine-protein kinase FLT3 (Homo sapiens) (UniProt P36888); assay: Inhibition of FLT3 in human MV4-11 cells assessed as reduction in STAT5 phosphorylation after 12 hrs by Western blot method; assay type: cell-based
MV4-11 [9] = assay: Induction of apoptosis in human MV4-11 cells assessed as caspase 3 cleavage at 0.1 to 10 uM after 12 hrs by Western blot method; assay type: functional, cell-based
[10] = target: Vascular endothelial growth factor receptor 3 (Homo sapiens) (UniProt P35916); assay: Inhibition of VEGFR3 (unknown origin) at 10 uM assessed as residual enzyme activity
[11] = target: Tyrosine-protein kinase Lck (Homo sapiens) (UniProt P06239); assay: Inhibition of LCK (unknown origin) at 10 uM assessed as residual enzyme activity
MDA-MB-231 = assay: Cytotoxicity against human MDA-MB-231 cells assessed as cell viability at 1 uM after 24 hrs by WST1 assay; assay type: functional; conditions: MDA-MB-231, 24 h, read-out: Activity
[12] = target: RAC-alpha serine/threonine-protein kinase (Homo sapiens) (UniProt P31749); assay: Inhibition of AKT1 (unknown origin) at 10 uM assessed as residual enzyme activity
[13] = target: Mitogen-activated protein kinase 11 (Homo sapiens) (UniProt Q15759); assay: Inhibition of P38beta (unknown origin) at 10 uM assessed as residual enzyme activity
[14] = target: Epidermal growth factor receptor (Homo sapiens) (UniProt P00533); assay: Inhibition of EGFR (unknown origin) at 10 uM assessed as residual enzyme activity
[15] = target: Ribosomal protein S6 kinase beta-1 (Homo sapiens) (UniProt P23443); assay: Inhibition of p70S6K (unknown origin) at 10 uM assessed as residual enzyme activity
MV4-11 [16] = assay: Induction of apoptosis in human MV4-11 cells assessed as increase in cleaved PARP level at 0.1 to 10 uM after 12 hrs by Western blot method; assay type: functional, cell-based
HL-60 [17] = assay: Inhibition of ERK phosphorylation in human HL60 cells at 0.1 to 10 uM after 12 hrs by Western blot method; assay type: cell-based
[18] = target: Insulin receptor (Homo sapiens) (UniProt P06213); assay: Inhibition of IR (unknown origin) at 10 uM assessed as residual enzyme activity
[19] = Cytotoxicity against rat L6 cells assessed as cell viability at 1 uM after 24 hrs by WST1 assay; assay type: cell-based; conditions: read-out: Activity
[20] = target: Tyrosine-protein kinase JAK1 (Homo sapiens) (UniProt P23458); assay: Inhibition of JAK1 (unknown origin) at 10 uM assessed as residual enzyme activity
[21] = target: Cyclin-dependent kinase 5/CDK5 activator 1 (Homo sapiens) (UniProt Q00535+Q15078); assay: Inhibition of CDK5/p35 (unknown origin) at 10 uM assessed as residual enzyme activity; assay type: protein-complex assay
[22] = target: Fibroblast growth factor receptor 1 (Homo sapiens) (UniProt P11362); assay: Inhibition of FGFR1 (unknown origin) at 10 uM assessed as residual enzyme activity
[23] = target: Vascular endothelial growth factor receptor 1 (Homo sapiens) (UniProt P17948); assay: Inhibition of VEGFR1 (unknown origin) at 10 uM assessed as residual enzyme activity
[24] = target: Aurora kinase A (Homo sapiens) (UniProt O14965); assay: Inhibition of Aurora A (unknown origin) at 10 uM assessed as residual enzyme activity
[25] = target: Proto-oncogene tyrosine-protein kinase receptor Ret (Homo sapiens) (UniProt P07949); assay: Inhibition of RET (unknown origin) at 10 uM assessed as residual enzyme activity
[26] = target: Serine/threonine-protein kinase Nek4 (Homo sapiens) (UniProt P51957); assay: Inhibition of STK2 (unknown origin) at 10 uM assessed as residual enzyme activity
[27] = target: Tyrosine-protein kinase Lyn (Homo sapiens) (UniProt P07948); assay: Inhibition of LYN (unknown origin) at 10 uM assessed as residual enzyme activity
[28] = target: Mitogen-activated protein kinase 3 (Homo sapiens) (UniProt P27361); assay: Inhibition of ERK1 (unknown origin) at 10 uM assessed as residual enzyme activity
[29] = target: Receptor-type tyrosine-protein kinase FLT3 (Homo sapiens, UniProt P36888); assay: Inhibition of FLT3 (unknown origin) by kinase hot spot assay
[30] = target: Mitogen-activated protein kinase 8 (Homo sapiens) (UniProt P45983); assay: Inhibition of JNK1 (unknown origin) at 10 uM assessed as residual enzyme activity
[31] = target: Mitogen-activated protein kinase kinase kinase 5 (Homo sapiens) (UniProt Q99683); assay: Inhibition of ASK1 (unknown origin) at 10 uM assessed as residual enzyme activity
HL-60 [32] = assay: Cytotoxicity against human HL60 cells assessed as cell growth inhibition after 24 hrs by WST1 assay; assay type: functional, cell-based
[33] = target: Serine/threonine-protein kinase STK11 (Homo sapiens) (UniProt Q15831); assay: Inhibition of LKB1 (unknown origin) at 10 uM assessed as residual enzyme activity
[34] = system: RAF proto-oncogene serine/threonine-protein kinase; assay: Inhibition of Raf1 (unknown origin) at 10 uM assessed as residual enzyme activity; conditions: Homo sapiens
[35] = target: Serine/threonine-protein kinase PAK 1 (Homo sapiens) (UniProt Q13153); assay: Inhibition of PAK1 (unknown origin) at 10 uM assessed as residual enzyme activity
[36] = Cytotoxicity against human U87MG cells assessed as cell viability at 1 uM after 24 hrs by WST1 assay; assay type: functional, U-87MG ATCC; conditions: U-87 MG, read-out: Activity
[37] = target: Leukocyte tyrosine kinase receptor (Homo sapiens) (UniProt P29376); assay: Inhibition of LTK (unknown origin) at 10 uM assessed as residual enzyme activity
Sequence of Leukocyte tyrosine kinase receptor (Homo sapiens) (P29376 whole entry): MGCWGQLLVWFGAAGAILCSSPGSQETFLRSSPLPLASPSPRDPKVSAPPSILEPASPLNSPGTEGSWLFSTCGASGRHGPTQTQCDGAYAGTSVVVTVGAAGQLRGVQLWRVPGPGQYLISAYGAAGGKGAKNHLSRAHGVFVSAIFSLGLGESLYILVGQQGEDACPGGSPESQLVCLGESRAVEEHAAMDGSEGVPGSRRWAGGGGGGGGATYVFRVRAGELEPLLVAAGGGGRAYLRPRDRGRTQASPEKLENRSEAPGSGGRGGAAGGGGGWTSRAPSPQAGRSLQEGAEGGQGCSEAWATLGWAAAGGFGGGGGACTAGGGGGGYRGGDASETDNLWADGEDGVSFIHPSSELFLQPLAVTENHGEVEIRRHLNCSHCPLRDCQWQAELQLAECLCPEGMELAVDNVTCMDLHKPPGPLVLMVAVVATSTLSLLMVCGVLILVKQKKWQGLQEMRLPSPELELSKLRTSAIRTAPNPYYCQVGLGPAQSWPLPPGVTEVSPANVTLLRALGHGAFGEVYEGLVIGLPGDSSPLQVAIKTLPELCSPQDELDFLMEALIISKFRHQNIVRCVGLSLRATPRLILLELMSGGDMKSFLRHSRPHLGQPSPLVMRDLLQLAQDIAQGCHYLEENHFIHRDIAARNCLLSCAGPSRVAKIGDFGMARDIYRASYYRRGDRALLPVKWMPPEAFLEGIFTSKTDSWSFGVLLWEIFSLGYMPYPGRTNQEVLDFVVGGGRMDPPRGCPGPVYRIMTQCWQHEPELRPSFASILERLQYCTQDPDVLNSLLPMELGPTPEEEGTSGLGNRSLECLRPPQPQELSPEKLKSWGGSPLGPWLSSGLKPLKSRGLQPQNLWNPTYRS

Sequence of Vascular endothelial growth factor receptor 1 (Homo sapiens) (P17948 whole entry): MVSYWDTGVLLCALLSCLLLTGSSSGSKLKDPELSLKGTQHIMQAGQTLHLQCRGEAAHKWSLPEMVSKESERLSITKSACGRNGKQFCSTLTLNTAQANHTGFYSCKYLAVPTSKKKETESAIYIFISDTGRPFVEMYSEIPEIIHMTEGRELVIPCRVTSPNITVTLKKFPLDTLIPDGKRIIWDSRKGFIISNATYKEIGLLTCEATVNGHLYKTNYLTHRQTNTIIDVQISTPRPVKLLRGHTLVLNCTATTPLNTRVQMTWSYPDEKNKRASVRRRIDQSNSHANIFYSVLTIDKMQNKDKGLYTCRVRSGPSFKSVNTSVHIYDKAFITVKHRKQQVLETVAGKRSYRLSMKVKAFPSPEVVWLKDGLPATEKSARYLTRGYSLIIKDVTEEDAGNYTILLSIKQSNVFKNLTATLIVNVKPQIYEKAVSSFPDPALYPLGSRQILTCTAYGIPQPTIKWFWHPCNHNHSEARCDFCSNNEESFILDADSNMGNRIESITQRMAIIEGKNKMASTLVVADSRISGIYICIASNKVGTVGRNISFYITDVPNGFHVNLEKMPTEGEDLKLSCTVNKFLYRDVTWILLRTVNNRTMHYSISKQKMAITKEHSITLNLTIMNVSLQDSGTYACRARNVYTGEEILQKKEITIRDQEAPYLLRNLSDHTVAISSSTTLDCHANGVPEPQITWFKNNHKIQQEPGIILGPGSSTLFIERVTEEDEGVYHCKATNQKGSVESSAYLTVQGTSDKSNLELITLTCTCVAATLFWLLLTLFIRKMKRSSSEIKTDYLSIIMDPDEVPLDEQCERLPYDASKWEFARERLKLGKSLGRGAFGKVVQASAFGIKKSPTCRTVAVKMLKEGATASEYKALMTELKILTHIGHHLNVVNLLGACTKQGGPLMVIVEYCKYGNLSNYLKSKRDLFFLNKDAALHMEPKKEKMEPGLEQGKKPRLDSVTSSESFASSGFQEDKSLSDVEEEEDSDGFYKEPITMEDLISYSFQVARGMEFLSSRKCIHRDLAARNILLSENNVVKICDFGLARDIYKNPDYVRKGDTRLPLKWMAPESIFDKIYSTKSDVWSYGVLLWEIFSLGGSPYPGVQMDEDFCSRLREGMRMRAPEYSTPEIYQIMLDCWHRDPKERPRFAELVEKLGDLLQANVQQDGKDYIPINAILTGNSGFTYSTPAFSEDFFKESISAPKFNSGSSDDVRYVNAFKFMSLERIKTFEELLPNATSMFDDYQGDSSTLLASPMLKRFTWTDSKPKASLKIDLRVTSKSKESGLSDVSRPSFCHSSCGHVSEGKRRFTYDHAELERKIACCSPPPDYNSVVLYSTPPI
Sequence of Cyclin-dependent kinase 5/CDK5 activator 1 (Homo sapiens) (Q00535 whole entry): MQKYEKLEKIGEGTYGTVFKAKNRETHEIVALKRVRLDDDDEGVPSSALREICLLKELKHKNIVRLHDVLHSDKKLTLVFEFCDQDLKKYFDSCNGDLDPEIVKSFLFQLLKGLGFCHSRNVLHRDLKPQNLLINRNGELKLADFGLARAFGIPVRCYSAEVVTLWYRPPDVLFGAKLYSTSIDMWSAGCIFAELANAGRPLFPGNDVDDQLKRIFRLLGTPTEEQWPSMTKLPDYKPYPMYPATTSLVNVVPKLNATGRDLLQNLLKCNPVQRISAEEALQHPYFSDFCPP
Sequence of Cyclin-dependent kinase 5/CDK5 activator 1 (Homo sapiens) (Q15078 99-307 partner limits assumed): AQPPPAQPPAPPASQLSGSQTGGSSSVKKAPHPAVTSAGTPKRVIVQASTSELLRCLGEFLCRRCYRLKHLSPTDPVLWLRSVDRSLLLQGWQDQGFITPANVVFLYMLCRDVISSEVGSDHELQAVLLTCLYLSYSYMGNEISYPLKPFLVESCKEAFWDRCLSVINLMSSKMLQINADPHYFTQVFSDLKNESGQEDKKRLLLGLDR
Sequence of Mitogen-activated protein kinase 8 (Homo sapiens) (P45983 whole entry): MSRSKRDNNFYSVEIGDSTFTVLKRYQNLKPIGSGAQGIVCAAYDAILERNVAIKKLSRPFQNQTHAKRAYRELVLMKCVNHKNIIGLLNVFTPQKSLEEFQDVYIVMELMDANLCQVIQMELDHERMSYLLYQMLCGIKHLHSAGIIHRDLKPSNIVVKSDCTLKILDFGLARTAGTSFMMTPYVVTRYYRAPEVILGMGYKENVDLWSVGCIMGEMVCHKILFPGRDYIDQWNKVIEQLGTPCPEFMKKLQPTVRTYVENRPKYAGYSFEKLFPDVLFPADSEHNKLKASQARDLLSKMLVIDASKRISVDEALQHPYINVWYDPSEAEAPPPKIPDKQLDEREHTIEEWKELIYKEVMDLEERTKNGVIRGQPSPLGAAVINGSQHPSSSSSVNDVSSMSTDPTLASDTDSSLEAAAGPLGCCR
Sequence of Mitogen-activated protein kinase 11 (Homo sapiens) (Q15759 whole entry): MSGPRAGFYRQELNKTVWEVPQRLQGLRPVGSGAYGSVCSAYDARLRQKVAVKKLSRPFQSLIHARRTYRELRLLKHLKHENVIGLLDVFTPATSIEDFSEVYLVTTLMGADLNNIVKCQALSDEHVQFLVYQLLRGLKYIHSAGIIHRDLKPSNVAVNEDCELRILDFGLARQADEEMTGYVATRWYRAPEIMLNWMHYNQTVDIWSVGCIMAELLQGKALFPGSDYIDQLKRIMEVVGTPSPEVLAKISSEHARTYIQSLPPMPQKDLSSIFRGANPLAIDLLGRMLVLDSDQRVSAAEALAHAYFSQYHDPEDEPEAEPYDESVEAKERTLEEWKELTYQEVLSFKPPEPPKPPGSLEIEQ
Sequence of Fibroblast growth factor receptor 1 (Homo sapiens) (P11362 22-822 limits assumed): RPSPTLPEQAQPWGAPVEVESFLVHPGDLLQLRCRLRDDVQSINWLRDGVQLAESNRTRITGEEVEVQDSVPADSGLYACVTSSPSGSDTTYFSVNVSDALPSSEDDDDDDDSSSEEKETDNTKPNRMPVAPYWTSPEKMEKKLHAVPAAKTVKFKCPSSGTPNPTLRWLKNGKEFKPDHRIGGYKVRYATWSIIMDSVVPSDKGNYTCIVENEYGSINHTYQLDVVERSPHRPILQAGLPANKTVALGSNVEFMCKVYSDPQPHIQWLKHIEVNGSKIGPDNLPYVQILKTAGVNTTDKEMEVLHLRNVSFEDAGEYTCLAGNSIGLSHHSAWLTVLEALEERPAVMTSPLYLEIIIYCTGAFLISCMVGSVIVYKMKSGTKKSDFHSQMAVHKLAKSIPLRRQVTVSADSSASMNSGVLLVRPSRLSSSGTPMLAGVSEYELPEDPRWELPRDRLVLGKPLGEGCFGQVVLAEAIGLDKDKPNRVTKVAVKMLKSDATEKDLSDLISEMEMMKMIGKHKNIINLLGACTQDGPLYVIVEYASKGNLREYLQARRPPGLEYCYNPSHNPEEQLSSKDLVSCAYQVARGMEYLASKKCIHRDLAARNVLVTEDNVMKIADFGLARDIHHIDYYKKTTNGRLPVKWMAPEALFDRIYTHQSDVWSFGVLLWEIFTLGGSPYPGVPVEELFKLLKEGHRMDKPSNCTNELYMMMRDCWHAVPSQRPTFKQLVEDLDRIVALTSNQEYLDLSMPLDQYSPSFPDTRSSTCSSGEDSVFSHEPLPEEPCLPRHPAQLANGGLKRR
Sequence of Aurora kinase A (Homo sapiens) (O14965 whole entry): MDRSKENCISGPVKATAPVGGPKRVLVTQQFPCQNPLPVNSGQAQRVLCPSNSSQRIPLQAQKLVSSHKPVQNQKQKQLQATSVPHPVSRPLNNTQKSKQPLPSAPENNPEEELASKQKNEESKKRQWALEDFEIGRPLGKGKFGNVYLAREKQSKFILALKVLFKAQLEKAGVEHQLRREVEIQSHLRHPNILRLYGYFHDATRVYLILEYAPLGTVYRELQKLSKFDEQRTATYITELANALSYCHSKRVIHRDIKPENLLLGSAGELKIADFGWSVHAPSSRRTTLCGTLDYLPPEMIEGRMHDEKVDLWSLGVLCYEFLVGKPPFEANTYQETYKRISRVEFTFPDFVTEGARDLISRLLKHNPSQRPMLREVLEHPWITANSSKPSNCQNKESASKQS

Activity [1]: 77%
Activity [2]: 78.7%
Activity [3]: 118%
Activity [4]: 96.8%
Activity [5]: 96.3%
Activity [6]: 102%
Activity [7]: 96.5%
inhibition [8]: Dose-dependent effect
Activity [10]: 101%
Activity [11]: 95.2%
Activity [12]: 93.6%
Activity [13]: 97.8%
Activity [14]: 91.2%
Activity [15]: 94.1%
Activity [18]: 95%
Activity [20]: 103%
Activity [21]: 87.2%
Activity [22]: 90.1%
Activity [23]: 90%
Activity [24]: 87.7%
Activity [25]: 83.3%
Activity [26]: 85.8%
Activity [27]: 86.6%
Activity [28]: 95.4%
IC50 [29]: 1300 nM
Activity [30]: 101%
Activity [31]: 97.8%
Activity [33]: 101%
Activity [34]: 94.9%
Activity [35]: 98.9%
Activity [37]: 92.9%
SMILES: COc1ccc(-c2n[nH]c3ncc(-c4ccc(Cl)cc4N)cc23)cc1
viability at 1 µM (MCF7): 86%
Activity (MV4-11 [9]): Active
viability at 1 µM (MDA-MB-231): 84%
Activity (MV4-11 [16]): Dose-dependent effect
inhibition (HL-60 [17]): inactive
viability at 24 h, 1 µM [19]: 107%
growth inhibition (GI) (HL-60 [32]): inactive
viability at 1 µM [36]: 89%
